{
  "source": "patent US8476221B2",
  "about": "“Methods and compositions for the treatment of metabolic disorders” (Halimed Pharmaceuticals, Inc., priority 2011, dated 2013)",
  "key": {"[1]": {"experiment": "Toxicity study in monkeys, serum chemistry (cholesterol, triglycerides, liver enzymes)", "assay_type": "in vivo", "protocol": "A study was conducted to evaluate toxicity in monkeys with HPI-363 at doses of 0.05 to 5 mg/kg. The compound was administered as a slow IV push over 20 to 30 seconds. Six animals (3 males and 3 females) approximately 2 years old and weighing 2.1-2.5 kilograms were dosed once daily for 14 days. Blood chemistry was collected on Days 1-15. […] A reduction of 27%-40% in levels of cholesterol and triglycerides respectively from pre-dose was observed over 15 days. The lipid-lowering effect occurred within a 12 hr-period."}, "[2]": {"experiment": "Body weight and food intake in Sprague-Dawley and obese Zucker (fa/fa) rats", "assay_type": "in vivo", "details": "for Avg. Wt. Change (g) Days 1-10 / Food Consumption. (g) Days 1-10: 1 mg/kg IV daily Days 1-10; for Avg. Wt. Change (g) Days 11-20 / Food Consumption. (g) Days 11-20: saline Days 11-20 after 1 mg/kg IV daily Days 1-10", "protocol": "Male Sprague-Dawley (SD, Harlan Laboratories) rats (210-220 g at initiation of experiments) and genetically obese Zucker (fa/fa) (ZF, Harlan Laboratories) rats (210-220 g at initiation of experiments) were housed individually under a 12 h:12 h light:dark schedule (lights on at 7:00 AM). All compound administration, animal and food weighing were performed between noon and 1 PM (during the light phase of the animals' circadian illumination schedule). Each rat was provided standard rat chow and water ad libitum throughout the experiments.\nEach animal received either 1 mg/kg HPI-363 dissolved in saline IV (Treated) or saline (Vehicle or Untreated) for ten consecutive days followed by daily injections of saline for ten additional days. At the start of the experiment, each animal was weighed and single-housed with rat chow and water, with subsequent weighing occurring at 24 hr increments for 20 days. For food intake, 100 g of rat chow was placed in each animal's hopper and leftover chow in the hopper was collected and weighed every 24 hr for 20 days at the time of animal weighing. Chow was then replenished to 100 g each day. As a monitor of the general health of the animals, rats were observed twice daily."}, "NT1 receptor": {"target": "NT1 receptor (Homo sapiens, UniProt P30989)", "sequence (P30989 whole entry)": "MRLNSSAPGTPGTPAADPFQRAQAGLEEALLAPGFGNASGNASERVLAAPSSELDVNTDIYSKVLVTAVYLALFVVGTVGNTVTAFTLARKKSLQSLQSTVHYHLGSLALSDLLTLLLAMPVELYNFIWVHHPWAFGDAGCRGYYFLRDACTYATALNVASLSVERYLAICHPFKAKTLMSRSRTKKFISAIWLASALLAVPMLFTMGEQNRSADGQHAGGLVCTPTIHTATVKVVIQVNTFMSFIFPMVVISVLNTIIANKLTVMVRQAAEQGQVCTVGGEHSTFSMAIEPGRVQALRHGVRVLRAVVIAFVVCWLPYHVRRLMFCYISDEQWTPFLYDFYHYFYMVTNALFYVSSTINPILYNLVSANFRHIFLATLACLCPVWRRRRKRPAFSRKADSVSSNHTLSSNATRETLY", "details": "receptor binding studies; cited from earlier work"}, "NT2 receptor": {"target": "NT2 receptor (Homo sapiens, UniProt O95665)", "sequence (O95665 whole entry)": "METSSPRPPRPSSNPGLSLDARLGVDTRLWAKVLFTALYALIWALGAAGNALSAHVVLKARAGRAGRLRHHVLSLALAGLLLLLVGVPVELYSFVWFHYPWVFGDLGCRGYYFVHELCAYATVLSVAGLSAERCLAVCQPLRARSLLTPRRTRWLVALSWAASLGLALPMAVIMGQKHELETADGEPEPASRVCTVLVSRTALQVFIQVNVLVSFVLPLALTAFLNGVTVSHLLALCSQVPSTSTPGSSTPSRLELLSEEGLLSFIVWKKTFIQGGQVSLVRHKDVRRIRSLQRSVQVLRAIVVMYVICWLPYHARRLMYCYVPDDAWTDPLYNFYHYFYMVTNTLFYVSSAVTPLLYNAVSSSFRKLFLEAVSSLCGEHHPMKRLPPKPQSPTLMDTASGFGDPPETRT", "details": "receptor binding studies; cited from earlier work"}},
  "note": "Non-standard residues stand in square brackets, D forms with d. Residues, ends and D or L forms follow the SMILES beside them. *: point of attachment. Tle = CC(C)(C)[C@H](N)C(=O)O; X1 = CCNCCCC(=O)*",
  "data": [
    {"compound": "CCNCCCC(=O)N[C@@H](CCCNC(=N)N)C(=O)N1CCC[C@H]1C(=O)N[C@@H](Cc1c[nH]c2ccccc12)C(=O)N[C@H](C(=O)N[C@@H](CC(C)C)C(=O)O)C(C)(C)C", "note": "[HPI-363] (X1-RPW[Tle]L-OH)", "values": [
      {"measurement": "Time in which the lipid-lowering effect occurred", "setting": "[1]; 0.05 to 5 mg/kg IV", "result": "≤ 12", "unit": "h"},
      {"measurement": "Effect on cholesterol and triglycerides (serum chemistry)", "setting": "[1]; 0.05 to 5 mg/kg IV once daily for 14 days", "result": "dose dependent effect"},
      {"measurement": "Liver enzymes", "setting": "[1]; 0.05 to 5 mg/kg IV once daily for 14 days, normalized within the 15 days of the study", "result": "transient rise"},
      {"measurement": "Reduction in levels of cholesterol from pre-dose", "setting": "[1]; 0.05 to 5 mg/kg slow IV push once daily for 14 days, over 15 days", "result": 27, "unit": "%"},
      {"measurement": "General health, observed twice daily", "setting": "[2]; SD and ZF rats, 20 days", "result": "No deviations from normal affect"},
      {"measurement": "Avg. Wt. Change (g) Days 1-10", "setting": "[2]; Sprague-Dawley (SD) rats", "result": 17.4, "unit": "g"},
      {"measurement": "Food Consumption. (g) Days 1-10", "setting": "[2]; Sprague-Dawley (SD) rats", "result": 148.5, "unit": "g"},
      {"measurement": "Avg. Wt. Change (g) Days 11-20", "setting": "[2]; Sprague-Dawley (SD) rats", "result": 40.0, "unit": "g"},
      {"measurement": "Food Consumption. (g) Days 11-20", "setting": "[2]; Sprague-Dawley (SD) rats", "result": 222.0, "unit": "g"},
      {"measurement": "Avg. Wt. Change (g) Days 1-10", "setting": "[2]; Zucker fa/fa (ZF) rats", "result": 54.6, "unit": "g"},
      {"measurement": "Food Consumption. (g) Days 1-10", "setting": "[2]; Zucker fa/fa (ZF) rats", "result": 252.7, "unit": "g"},
      {"measurement": "Avg. Wt. Change (g) Days 11-20", "setting": "[2]; Zucker fa/fa (ZF) rats", "result": 88.5, "unit": "g"},
      {"measurement": "Food Consumption. (g) Days 11-20", "setting": "[2]; Zucker fa/fa (ZF) rats", "result": 402.0, "unit": "g"},
      {"measurement": "Food intake", "setting": "[2]; both SD and ZF rats, 1 mg/kg IV Days 1-10", "result": "decreased food intake"},
      {"measurement": "Weight gain", "setting": "[2]; both SD and ZF rats, 1 mg/kg IV Days 1-10, maintained after cessation (Days 11-20)", "result": "inhibition of weight gain"}
    ]},
    {"compound": "Lys-(psiCH2NH)-Lys-Pro-Trp-Ter-Leu-Leu-OEt [PD149163]", "values": [
      {"measurement": "Affinity for the NT1 receptor", "setting": "NT1 receptor", "result": "has affinity"},
      {"measurement": "Affinity for the NT2 receptor", "setting": "NT2 receptor", "result": "no detectable affinity"}
    ]}
  ]
}
